Experiment [1] has as its system Staphylococcus aureus subsp. aureus (ATCC29213). The experiment in a line: MIC, broth microdilution (CLSI), Staphylococcus aureus subsp. aureus ATCC29213. Type of experiment: cell-based. Conditions: ATCC29213, Table 15, read-out: S. aureus ("wound") (MIC). On the technique in general: In broth dilution the organism is exposed to a series of concentrations in liquid medium.

For experiment [2], the system named is Escherichia coli (ATCC25922). Nature of the experiment: MIC, broth microdilution (CLSI), Escherichia coli ATCC25922.
Setting [3] is: ATCC25922, read-out: E. coli MIC, Table 15, NI = No inhibition.
[4] abbreviates: ATCC25922, read-out: E. coli MIC.

Consider 30 compounds from patent US11130741B2 (Bioimics AB, priority 2016, dated 2021).

Values after ≈ are worked out from the molar mass of the structure shown. Where a name gives a salt, the structure may show the parent alone. Read-outs that look alike come from different tables or passages of the source. Bounds are passed on as bounds.

In the case of `NC1CCCC(C(=O)Nc2cc(C(F)(F)F)cc3c2Nc2ccc(N4CCNCC4)cc2S3)C1` (stereo not drawn) [compound 256, 3-amino-N-(7-(piperazin-1-yl)-3-(trifluoromethyl)-10H-phenothiazin-1-yl)cyclohexane-1-carboxamide], the MIC (usually the least concentration at which growth counts as inhibited) in experiment [1] turned out to be 16 mg/L (≈ 32.5 µM); in experiment [2] (setting [3]), 32 mg/L (≈ 65.1 µM).
On the same counts, the results for `NC1CCCC(C(=O)Nc2cc(C(F)(F)F)cc3c2Nc2ccncc2S3)C1` (stereo not drawn) [compound 257, 3-amino-N-(8-(trifluoromethyl)-5H-benzo[e]pyrido[3,4-b][1,4]thiazin-6-yl)cyclohexanecarboxamide] are 64 mg/L (≈ 157 µM) and 128 mg/L (≈ 313 µM).
On to `FC(F)(F)c1cc(NC2CCNCC2)c2c(c1)SC1CCCCC1N2` (stereo not drawn) [compound 259, N-(piperidin-4-yl)-7-(trifluoromethyl)-2,3,4,4a,10,10a-hexahydro-1H-phenothiazin-9-amine], for which the MIC is 16 mg/L (≈ 43.1 µM) in experiment [1] and 64 mg/L (≈ 172 µM) in experiment [2] (setting [3]).
For `NCCCN1c2ccc(C(=O)O)cc2Sc2cc(-c3cc4ccccc4[nH]3)ccc21` [compound 262, 10-(3-aminopropyl)-7-(1H-indol-2-yl)-10H-phenothiazine-3-carboxylic acid trifluoro acetic acid], the MIC in experiment [1] was 32 mg/L (≈ 77 µM); in experiment [2] (setting [4]) it was over 128 mg/L.
In the case of `NC1CCCC(C(=O)Nc2cc(C(F)(F)F)cc3c2Nc2ncccc2S3)C1` (stereo not drawn) [compound 263, 3-amino-N-(7-(trifluoromethyl)-10H-benzo[b]pyrido[2,3-e] [1,4]thiazin-9-yl)cyclohexane-1-carboxamide], the MIC in experiment [1] and in experiment [2] (setting [3]) was 64 mg/L (≈ 157 µM) throughout.
As for `FC(F)(F)c1cc(NC2CCNCC2)c2c(c1)Sc1cccnc1N2` [compound 264, N-(piperidin-4-yl)-7-(trifluoromethyl)-10H-benzo[b] pyrido[2,3-e] [1,4]thiazin-9-amine], the MIC was determined as 8 mg/L (≈ 21.8 µM) in experiment [1] and 16 mg/L (≈ 43.7 µM) in experiment [2] (setting [3]).
Consider `NCCCN1c2ccc(N3CCNCC3)cc2Sc2cc(C(F)(F)F)ccc21` [compound 265, 3-(3-(piperazin-1-yl)-7-(trifluoromethyl)-10H-phenothiazin-10-yl)propan-1-amine hydrochloride], for which the minimal inhibitory concentration (MIC) in experiment [1] came out at 16 mg/L; in experiment [2] (setting [4]), 64 mg/L.
The like results for `NCCCN1c2ccncc2Sc2cc(-c3cc4ccccc4[nH]3)ccc21` [compound 267, 3-(8-(1H-indol-2-yl)-5H-benzo[b]pyrido[4,3-e] [1,4]thiazin-5-yl)propan-1-amine trifluoro acetic acid] were, in that order, 2 mg/L (≈ 5.37 µM) and 16 mg/L (≈ 43 µM).
The like results for `NCCN1CCN(c2ccc3c(c2)Sc2cc(C(F)(F)F)cc(NC4CCNCC4)c2N3)CC1` [compound 269, 7-(4-(2-aminoethyl)piperazin-1-yl)-N-(piperidin-4-yl)-3-(trifluoromethyl)-10H-phenothiazin-1-amine hydrochloride] were, in that order, 16 mg/L and 64 mg/L.
On the same counts, the results for `FC(F)(F)c1cc(NC2CCNCC2)c2c(c1)Sc1cc(N3CCNCC3)ccc1N2` [compound 270, 7-(piperazin-1-yl)-N-(piperidin-4-yl)-3-(trifluoromethyl)-10H-phenothiazin-1-amine hydrochloride] are 32 mg/L and 128 mg/L.
In the case of `CCOC(=O)c1ccc2c(c1)Sc1cc(N3CCN(CCN)CC3)ccc1N2CCCN` [compound 271, ethyl 7-(4-(2-aminoethyl)piperazin-1-yl)-10-(3-aminopropyl)-10H-phenothiazine-3-carboxylate trifluoro acetic acid], the MIC was 128 mg/L (≈ 281 µM) in experiment [1] and over 128 mg/L in experiment [2] (setting [4]).
Consider `Cl.Cl.NCCN1CCC(Nc2cc(C(F)(F)F)cc3c2Nc2ccc(N4CCC(N)CC4)cc2S3)CC1` [compound 272, N-(1-(2-aminoethyl)piperidin-4-yl)-7-(4-aminopiperidin-1-yl)-3-(trifluoromethyl)-10H-phenothiazin-1-amine], for which the MIC amounted to 16 mg/L in experiment [1] and 32 mg/L in experiment [2] (setting [3]).
On the same counts, the results for `Cl.Cl.Cl.NCCC1CCN(c2ccc3c(c2)Sc2cc(C(F)(F)F)cc(NC4CCN(CCN)CC4)c2N3)CC1` [compound 273, 7-(4-(2-aminoethyl)piperidin-1-yl)-N-(1-(2-aminoethyl)piperidin-4-yl)-3-(trifluoromethyl)-10H-phenothiazin-1-amine hydrochloride] are 8 mg/L and 32 mg/L.
On the same counts, the results for `CCOC(=O)c1ccc2c(c1)Sc1cc(Br)ccc1N2CCCN` [compound 276, ethyl 10-(3-aminopropyl)-7-bromo-10H-phenothiazine-3-carboxylate] are 4 mg/L (≈ 9.82 µM) and 32 mg/L (≈ 78.6 µM).
With `Cl.Cl.NCCCN1c2ccc(C(=O)O)cc2Sc2cc(N3CCN(CCN)CC3)ccc21` [compound 277, 7-(4-(2-aminoethyl)piperazin-1-yl)-10-(3-aminopropyl)-10H-phenothiazine-3-carboxylic acid hydrochloride], the MIC in experiment [1] and in experiment [2] (setting [4]) was over 128 mg/L each time.
As to `Cl.Cl.Cl.NCCCN1c2ccc(Br)cc2Sc2cc(N3CCN(CCN)CC3)ccc21` [compound 278, 3-(3-(4-(2-aminoethyl)piperazin-1-yl)-7-bromo-10H-phenothiazin-10-yl)propan-1-amine hydrochloride], the MIC came out at 32 mg/L in experiment [1] and 128 mg/L in experiment [2] (setting [3]).
The like results for `CC1CN(c2ccc3c(c2)Sc2cc(Br)ccc2N3CCCN)CC(C)O1.Cl` (stereo not drawn) [compound 279, 3-(3-bromo-7-(2,6-dimethyl-morpholino)-10H-phenothiazin-10-yl)propan-1-amine hydrochloride] were, in that order, 16 mg/L and 128 mg/L.
The like results for `Cl.Cl.NCCN1CCC(Nc2cc(C(=O)NNc3ccc(F)cc3)cc3c2Nc2ccccc2S3)CC1` [compound 280, 1-((1-(2-aminoethyl)piperidin-4-yl)amino)-N′-(4-fluorophenyl)-10H-phenothiazine-3-carbohydrazide hydrochloride] were, in that order, 16 mg/L and 64 mg/L.
On the same counts, the results for `Cl.Cl.NCCN1CCC(Nc2cc(C(=O)NNc3ccccc3)cc3c2Nc2ccccc2S3)CC1` [compound 281, 1-((1-(2-aminoethyl)piperidin-4-yl)amino)-N′-phenyl-10H-phenothiazine-3-carbohydrazide hydrochloride] are 32 mg/L and 64 mg/L.
On to `Cl.Cl.NCCN1CCC(Nc2cc(C(F)(F)F)cc3c2Nc2ccc(Br)cc2S3)CC1` [compound 282, N-(1-(2-aminoethyl)piperidin-4-yl)-7-bromo-3-(trifluoromethyl)-10H-phenothiazin-1-amine hydrochloride], for which the MIC in experiment [1] turned out to be 4 mg/L; in experiment [2] (setting [3]) it was 8 mg/L.
Consider `CC1CC(C)CN(c2ccc3c(c2)Sc2cc(N4CCN(CCN)CC4)ccc2N3CCCN)C1.Cl.Cl.Cl.Cl` (stereo not drawn) [compound 286, 3-(3-(4-(2-aminoethyl)piperazin-1-yl)-7-(3,5-dimethyl-piperidin-1-yl)-10H-phenothiazin-10-yl)propan-1-amine hydrochloride], for which the MIC in experiment [1] came out at 32 mg/L; in experiment [2] (setting [3]) it was 128 mg/L.
For `Cl.Cl.NCCN1CCC(Nc2cc(C(N)=O)cc3c2Nc2ccccc2S3)CC1` [compound 287, 1-((1-(2-aminoethyl)piperidin-4-yl)amino)-10H-phenothiazine-3-carboxamide hydrochloride], the MIC in experiment [1] is 128 mg/L; in experiment [2] (setting [4]), over 128 mg/L.
Consider `Cl.Cl.NCCN1CCC(Nc2cc(C(=O)N3CCCC3)cc3c2Nc2ccccc2S3)CC1` [compound 288, (1-(1-(2-aminoethyl)piperidin-4-ylamino)-10H-phenothiazin-3-yl)(pyrrolidin-1-yl)methanone], for which the MIC in experiment [1] and in experiment [2] (setting [4]) was 128 mg/L each time.
Turning to `Cl.Cl.NCCN1CCC(Nc2cc(C(F)(F)F)cc3c2Nc2ccc(N4CCCCC4)cc2S3)CC1` [compound 289, N-(1-(2-aminoethyl)piperidin-4-yl)-7-(piperidin-1-yl)-3-(trifluoromethyl)-10H-phenothiazin-1-amine hydrochloride], the MIC in experiment [1] turned out to be 4 mg/L; in experiment [2] (setting [3]) it was 8 mg/L.
On the same counts, the results for `FC(F)(F)c1cc(NC2CC3CCC(C2)N3)c2c(c1)Sc1ccccc1N2` (stereo not drawn) [compound 290, N-(8-azabicyclo[3.2.1]octan-3-yl)-3-(trifluoromethyl)-10H-phenothiazin-1-amine] are 8 mg/L (≈ 20.4 µM) and 32 mg/L (≈ 81.7 µM).
The like results for `Cl.Cl.Cl.NCCCN1c2ccc(N3CCCC3)cc2Sc2cc(N3CCN(CCN)CC3)ccc21` [compound 291, 3-(3-(4-(2-aminoethyl)piperazin-1-yl)-7-(pyrrolidin-1-yl)-10H-phenothiazin-10-yl)propan-1-amine hydrochloride] were, in that order, 16 mg/L and 128 mg/L.
On the same counts, the results for `Cl.NCCN1CCC(Nc2cc(C(F)(F)F)cc3c2Nc2ccc(N4CCC4)cc2S3)CC1` [compound 296, N-(1-(2-aminoethyl)piperidin-4-yl)-7-(azetidin-1-yl)-3-(trifluoromethyl)-10H-phenothiazin-1-amine hydrochloride] are 4 mg/L and 8 mg/L.
Take `Cl.Cl.N#Cc1ccc2c(c1)Sc1cc(C(F)(F)F)cc(NC(=O)CCNCCN)c1N2` [compound 304, 3-((2-aminoethyl)amino)-N-(7-cyano-3-(trifluoromethyl)-10H-phenothiazin-1-yl)propanamide hydrochloride]: the MIC is 16 mg/L in experiment [1] and 32 mg/L in experiment [2] (setting [3]).
The like results for `CC1CCCN(c2ccc3c(c2)Sc2cc(C(F)(F)F)cc(NC(=O)CCNCCN)c2N3)C1.Cl.Cl` (stereo not drawn) [compound 308, 3-((2-aminoethyl)amino)-N-(7-(3-methyl-piperidin-1-yl)-3-(trifluoromethyl)-10H-phenothiazin-1-yl)propanamide hydrochloride] were, in that order, 16 mg/L and 64 mg/L.
As for `Cl.Cl.NCCN1CCC(Nc2cc(C(F)(F)F)cc3c2Nc2ccc(N4CCc5ccccc54)cc2S3)CC1` [compound 310, N-(1-(2-aminoethyl)piperidin-4-yl)-7-(indolin-1-yl)-3-(trifluoromethyl)-10H-phenothiazin-1-amine hydrochloride], the MIC in experiment [1] was determined as 8 mg/L; in experiment [2] (setting [3]) it was 128 mg/L.
